Measured values from ChEMBL document CHEMBL4376833, “Influence of Non-natural Cationic Amino Acids on the Biological Activity Profile of Innate Defense Regulator Peptides” (J Med Chem, 2019).
Active and inactive are the calls of the source. How the calls were made is not given here. Non-standard residues stand in square brackets, D forms with d. Residues, ends and D or L forms follow the SMILES beside them. hArg = N=C(N)NCCCC[C@H](N)C(=O)O; Agb = N=C(N)NCC[C@H](N)C(=O)O; Agp = N=C(N)NC[C@H](N)C(=O)O; Orn = NCCC[C@H](N)C(=O)O; Dab = NCC[C@H](N)C(=O)O; Dap = NC[C@H](N)C(=O)O

Legend:
Staphylococcus aureus [1] = test: Antibacterial activity against methicillin-resistant Staphylococcus aureus assessed as alteration in bacterial growth incubated for overnight by microtiter plate based spectrophotometric analysis; assay type: functional, organism-based
Staphylococcus aureus [2] = test: Antibiofilm activity against methicillin-resistant Staphylococcus aureus assessed as inhibition of biofilm formation incubated for overnight by crystal violet staining based microtiter plate assay; assay type: functional, organism-based
Staphylococcus aureus [3] = test: Antibiofilm activity against methicillin-resistant Staphylococcus aureus assessed as inhibition of biofilm formation by measuring residual biofilm growth incubated for overnight at 10-fold dilution by crystal violet staining based microtiter plate assay relative to control; assay type: functional

CC[C@H](C)[C@H](NC(=O)[C@H](CCCNC(=N)N)NC(=O)[C@@H](NC(=O)[C@H](C)NC(=O)[C@@H](NC(=O)[C@H](CCN)NC(=O)[C@H](CC(C)C)NC(=O)[C@H](CCCNC(=N)N)NC(=O)[C@@H](N)C(C)C)C(C)C)C(C)C)C(=O)N[C@@H](Cc1c[nH]c2ccccc12)C(=O)N[C@@H](CCCNC(=N)N)C(=O)N[C@@H](CCCNC(=N)N)C(N)=O (H-VRL[Dab]VAVRIWRR-NH2)
Activity (Staphylococcus aureus [1]): Active
inhibition (Staphylococcus aureus [2]): Dose-dependent effect
residual biofilm growth (% of control) (Staphylococcus aureus [3]): 103.3%

CC[C@H](C)[C@H](NC(=O)[C@H](CCCNC(=N)N)NC(=O)[C@@H](NC(=O)[C@H](C)NC(=O)[C@@H](NC(=O)[C@H](CN)NC(=O)[C@H](CC(C)C)NC(=O)[C@H](CCCNC(=N)N)NC(=O)[C@@H](N)C(C)C)C(C)C)C(C)C)C(=O)N[C@@H](Cc1c[nH]c2ccccc12)C(=O)N[C@@H](CCCNC(=N)N)C(=O)N[C@@H](CCCNC(=N)N)C(N)=O (H-VRL[Dap]VAVRIWRR-NH2)
Activity (Staphylococcus aureus [1]): Active
inhibition (Staphylococcus aureus [2]): Dose-dependent effect
residual biofilm growth (% of control) (Staphylococcus aureus [3]): 108.3%

CC[C@H](C)[C@H](NC(=O)[C@H](CCCNC(=N)N)NC(=O)[C@@H](NC(=O)[C@H](C)NC(=O)[C@@H](NC(=O)[C@H](CCCN)NC(=O)[C@H](CC(C)C)NC(=O)[C@H](CCCNC(=N)N)NC(=O)[C@@H](N)C(C)C)C(C)C)C(C)C)C(=O)N[C@@H](Cc1c[nH]c2ccccc12)C(=O)N[C@@H](CCCNC(=N)N)C(=O)N[C@@H](CCCNC(=N)N)C(N)=O (H-VRL[Orn]VAVRIWRR-NH2)
Activity (Staphylococcus aureus [1]): Active
inhibition (Staphylococcus aureus [2]): Dose-dependent effect
residual biofilm growth (% of control) (Staphylococcus aureus [3]): 36.9%

CC[C@H](C)[C@H](NC(=O)[C@H](CCCNC(=N)N)NC(=O)[C@@H](NC(=O)[C@H](C)NC(=O)[C@@H](NC(=O)[C@H](CCCCNC(=N)N)NC(=O)[C@H](CC(C)C)NC(=O)[C@H](CCCNC(=N)N)NC(=O)[C@@H](N)C(C)C)C(C)C)C(C)C)C(=O)N[C@@H](Cc1c[nH]c2ccccc12)C(=O)N[C@@H](CCCNC(=N)N)C(=O)N[C@@H](CCCNC(=N)N)C(N)=O (H-VRL[hArg]VAVRIWRR-NH2)
Activity (Staphylococcus aureus [1]): Active
inhibition (Staphylococcus aureus [2]): Dose-dependent effect
residual biofilm growth (% of control) (Staphylococcus aureus [3]): 107.6%

CC[C@H](C)[C@H](NC(=O)[C@H](CCCNC(=N)N)NC(=O)[C@@H](NC(=O)[C@H](C)NC(=O)[C@@H](NC(=O)[C@@H](NC(=O)[C@H](CCNC(=N)N)NC(=O)[C@H](CCCNC(=N)N)NC(=O)[C@@H](N)C(C)C)[C@@H](C)CC)C(C)C)C(C)C)C(=O)N[C@@H](Cc1c[nH]c2ccccc12)C(=O)N[C@@H](CCCNC(=N)N)C(=O)N[C@@H](CCCNC(=N)N)C(N)=O (H-VR[Agb]IVAVRIWRR-NH2)
Activity (Staphylococcus aureus [1]): Active
inhibition (Staphylococcus aureus [2]): Dose-dependent effect
residual biofilm growth (% of control) (Staphylococcus aureus [3]): 99.8%

CC[C@H](C)[C@H](NC(=O)[C@H](CCCNC(=N)N)NC(=O)[C@@H](NC(=O)[C@H](C)NC(=O)[C@@H](NC(=O)[C@@H](NC(=O)[C@H](CNC(=N)N)NC(=O)[C@H](CCCNC(=N)N)NC(=O)[C@@H](N)C(C)C)[C@@H](C)CC)C(C)C)C(C)C)C(=O)N[C@@H](Cc1c[nH]c2ccccc12)C(=O)N[C@@H](CCCNC(=N)N)C(=O)N[C@@H](CCCNC(=N)N)C(N)=O (H-VR[Agp]IVAVRIWRR-NH2)
Activity (Staphylococcus aureus [1]): Active
inhibition (Staphylococcus aureus [2]): Dose-dependent effect
residual biofilm growth (% of control) (Staphylococcus aureus [3]): 102.2%

CC[C@H](C)[C@H](NC(=O)[C@H](CCCNC(=N)N)NC(=O)[C@@H](NC(=O)[C@H](C)NC(=O)[C@@H](NC(=O)[C@@H](NC(=O)[C@H](CCN)NC(=O)[C@H](CCCNC(=N)N)NC(=O)[C@@H](N)C(C)C)[C@@H](C)CC)C(C)C)C(C)C)C(=O)N[C@@H](Cc1c[nH]c2ccccc12)C(=O)N[C@@H](CCCNC(=N)N)C(=O)N[C@@H](CCCNC(=N)N)C(N)=O (H-VR[Dab]IVAVRIWRR-NH2)
Activity (Staphylococcus aureus [1]): Active
inhibition (Staphylococcus aureus [2]): Dose-dependent effect
residual biofilm growth (% of control) (Staphylococcus aureus [3]): 48.6%

CC[C@H](C)[C@H](NC(=O)[C@H](CCCNC(=N)N)NC(=O)[C@@H](NC(=O)[C@H](C)NC(=O)[C@@H](NC(=O)[C@@H](NC(=O)[C@H](CN)NC(=O)[C@H](CCCNC(=N)N)NC(=O)[C@@H](N)C(C)C)[C@@H](C)CC)C(C)C)C(C)C)C(=O)N[C@@H](Cc1c[nH]c2ccccc12)C(=O)N[C@@H](CCCNC(=N)N)C(=O)N[C@@H](CCCNC(=N)N)C(N)=O (H-VR[Dap]IVAVRIWRR-NH2)
Activity (Staphylococcus aureus [1]): Active
inhibition (Staphylococcus aureus [2]): Dose-dependent effect
residual biofilm growth (% of control) (Staphylococcus aureus [3]): 104.7%

CC[C@H](C)[C@H](NC(=O)[C@H](CCCNC(=N)N)NC(=O)[C@@H](NC(=O)[C@H](C)NC(=O)[C@@H](NC(=O)[C@@H](NC(=O)[C@H](CCCN)NC(=O)[C@H](CCCNC(=N)N)NC(=O)[C@@H](N)C(C)C)[C@@H](C)CC)C(C)C)C(C)C)C(=O)N[C@@H](Cc1c[nH]c2ccccc12)C(=O)N[C@@H](CCCNC(=N)N)C(=O)N[C@@H](CCCNC(=N)N)C(N)=O (H-VR[Orn]IVAVRIWRR-NH2)
Activity (Staphylococcus aureus [1]): Active
inhibition (Staphylococcus aureus [2]): Dose-dependent effect
residual biofilm growth (% of control) (Staphylococcus aureus [3]): 99.3%

CC[C@H](C)[C@H](NC(=O)[C@H](CCCNC(=N)N)NC(=O)[C@@H](NC(=O)[C@H](C)NC(=O)[C@@H](NC(=O)[C@@H](NC(=O)[C@H](CCCCNC(=N)N)NC(=O)[C@H](CCCNC(=N)N)NC(=O)[C@@H](N)C(C)C)[C@@H](C)CC)C(C)C)C(C)C)C(=O)N[C@@H](Cc1c[nH]c2ccccc12)C(=O)N[C@@H](CCCNC(=N)N)C(=O)N[C@@H](CCCNC(=N)N)C(N)=O (H-VR[hArg]IVAVRIWRR-NH2)
Activity (Staphylococcus aureus [1]): Active
inhibition (Staphylococcus aureus [2]): Dose-dependent effect
residual biofilm growth (% of control) (Staphylococcus aureus [3]): 108.6%

CC[C@H](C)[C@H](NC(=O)[C@H](CCCNC(=N)N)NC(=O)[C@@H](NC(=O)[C@H](C)NC(=O)[C@@H](NC(=O)[C@@H](NC(=O)[C@H](CC(C)C)NC(=O)[C@H](CCNC(=N)N)NC(=O)[C@@H](N)C(C)C)[C@@H](C)CC)C(C)C)C(C)C)C(=O)N[C@@H](Cc1c[nH]c2ccccc12)C(=O)N[C@@H](CCCNC(=N)N)C(=O)N[C@@H](CCCNC(=N)N)C(N)=O (H-V[Agb]LIVAVRIWRR-NH2)
Activity (Staphylococcus aureus [1]): Active
inhibition (Staphylococcus aureus [2]): Dose-dependent effect
residual biofilm growth (% of control) (Staphylococcus aureus [3]): 29.6%

CC[C@H](C)[C@H](NC(=O)[C@H](CCCNC(=N)N)NC(=O)[C@@H](NC(=O)[C@H](C)NC(=O)[C@@H](NC(=O)[C@@H](NC(=O)[C@H](CC(C)C)NC(=O)[C@H](CNC(=N)N)NC(=O)[C@@H](N)C(C)C)[C@@H](C)CC)C(C)C)C(C)C)C(=O)N[C@@H](Cc1c[nH]c2ccccc12)C(=O)N[C@@H](CCCNC(=N)N)C(=O)N[C@@H](CCCNC(=N)N)C(N)=O (H-V[Agp]LIVAVRIWRR-NH2)
Activity (Staphylococcus aureus [1]): Active
inhibition (Staphylococcus aureus [2]): Dose-dependent effect
residual biofilm growth (% of control) (Staphylococcus aureus [3]): 28.3%

CC[C@H](C)[C@H](NC(=O)[C@H](CCCNC(=N)N)NC(=O)[C@@H](NC(=O)[C@H](C)NC(=O)[C@@H](NC(=O)[C@@H](NC(=O)[C@H](CC(C)C)NC(=O)[C@H](CCN)NC(=O)[C@@H](N)C(C)C)[C@@H](C)CC)C(C)C)C(C)C)C(=O)N[C@@H](Cc1c[nH]c2ccccc12)C(=O)N[C@@H](CCCNC(=N)N)C(=O)N[C@@H](CCCNC(=N)N)C(N)=O (H-V[Dab]LIVAVRIWRR-NH2)
Activity (Staphylococcus aureus [1]): Active
inhibition (Staphylococcus aureus [2]): Dose-dependent effect
residual biofilm growth (% of control) (Staphylococcus aureus [3]): 21.5%
